Test results published in patent US10632110B2, “Pharmaceutical composition for preventing or treating cancer and method using thereof” (MEDPACTO INC., priority 2016, dated 2020).
Marks after values point to notes of the source that are not given here.

Columns and labels:
Assay type in all cases: in vivo, C57BL/6 mice
[1] = system: B16F10 melanoma cell line; test: Test of synergistic combination of drugs in mouse model; details: 11 days after drug administration, TEW-7197 10 mg/kg oral, antibody about 100 μg per mouse
Protocol: In detail, as described in 1., C57BL/6 mice were prepared, and 1×10^4 cells of B16F10 melanoma cell line (ATCC, CRL-6475™) were injected to each of the mice. When the average tumor size of each group reached about 26.0 mm^3, drug administration was carried out.
As described in 1., TEW-7197, anti-CTLA4 antibody, anti-PD-L1 antibody, anti-PD1 antibody, human IgG, and hamster IgG were prepared as drugs.
The prepared mice were orally administered with a TEW-7197 solution at a dose of 10 mg/weight kg once a day for 5 consecutive days of a week. Then, during the last 2 days, the TEW-7197 solution was not administered. These mice were administered with antibody at a dose of about 100 μg per mouse once every 2 days by abdominal injection. In a negative control group, a vehicle was administered for TEW-7197, and human IgG or hamster IgG was administered for antibody. 11 days after the drug administration, tumor volume was measured with calipers and calculated as described in 3.

[2] = Measurement of weight caused by administration drug in melanoma mouse model
Protocol: (§1) In order to validate in vivo anti-tumor effects, female 5 week-old SPF C57BL/6 mice were purchased from Koatech Co. (South Korea). These mice were maintained in a room controlled at a temperature of about 22° C. while freely supplying food and water to them. 1 week after, 5×10^4 cells of B16F10 melanoma cell line (ATCC, CRL-6475™) were injected to these 6 week-old mice by subcutaneous injection. 8 week-old mice, 2 weeks after the injection of melanoma cell line, were used in the experiment.
(§2) As a carrier, 7 ml of 37% (v/v) […], 2.0 g of NaCl, 3.2 g of pepsin (Sigma-Aldrich), and distilled water were mixed together to prepare 1,000 ml of artificial gastric fluid. As an administration drug, N-((4-([1,2,4]triazolo[1,5-a]pyridin-6-yl)-5-(6-methylpyridin-2-yl)-1H-imidazol-2-yl)methyl)-2-fluoroaniline (hereinafter, referred to as “TEW-7197”) (Syngene, India) was dissolved in the carrier to prepare 2.5 mg/ml of TEW-7197 solution.
(§3) As for another administration drug, anti-PD-L1 monoclonal antibody (prepared by requesting to ANR therapeutics co., Ltd., host cell: HEK293F), anti-PD1 monoclonal hamster antibody (BioXCell, Cat. No. BE0033-2), anti-CTLA4 monoclonal hamster antibody (BioXCell, Cat. No. BE0131), human immunoglobulin G (IgG) (Thermo Scientific, Cat. No. 31154), and monoclonal hamster IgG (BioXCell, Cat. No. BE0091) were prepared.
(§4) The mouse models prepared in 1. were orally administered with 2.5 mg/ml of a TEW-7197 solution at a dose of 25 mg/weight kg once a day for 5 consecutive days of a week. Then, during the last 2 days, the TEW-7197 solution was not administered to them. These mice were administered with antibody at a dose of about 100 μg per mouse once every 2 days by abdominal injection. As for a control group for TEW-7197, a carrier administered group was used. As for a control group for antibody, a human IgG administered group and a hamster IgG administered group were used.
From the day that the drugs were administered (start date) to the 11th day, the weights of mice were measured every 2 days.

[3] = system: B16F10 melanoma cell line; test: Test of tumor inhibitory effects of drug in mouse model; parameters: tumor inhibition rate (vs. vehicle, human IgG or hamster IgG administered group): concentration or dose not given beside the values; details: for Tumor volume change (Δt = Vt − V0): TEW-7197 25 mg/kg oral, antibody about 100 μg per mouse
Protocol: as §1, §2, §3, §4
As described in 2., drug administration was carried out, and then 20 minutes after the last dose of the drug, mice were sacrificed, tumors were resected from the mice. Tumor volume was measured with calipers and calculated using Equation 1: Tumor volume (mm^3)=[length (mm)×width (mm)×height (mm)]/2 [Equation 1]
The difference between the initial tumor volume (V0) in the start date and the tumor volume after drug administration (Vt) was calculated, to calculate the change in tumor volume (Δt=Vt−V0). From the calculated tumor volume, the tumor inhibition rate (%) by drug administration was calculated.

## Cc1cccc(-c2[nH]c(CNc3ccccc3F)nc2-c2ccc3ncnn3c2)n1 [TEW-7197, N-((4-([1,2,4]triazolo[1,5-a]pyridin-6-yl)-5-(6-methylpyridin-2-yl)-1H-imidazol-2-yl)methyl)-2-fluoroaniline]
[1]; FIG. 1A (anti-CTLA4 series)
  tumor volume decrease as compared with the negative control group: about 10.1%
[1]; FIG. 1B (anti-PD-L1 series)
  tumor volume decrease as compared with the negative control group: about 9.2%
[1]; FIG. 1C (anti-PD1 series)
  tumor volume decrease as compared with the negative control group: about 8.1%
[2]; 2 days after administration, TEW-7197 25 mg/kg oral, antibody about 100 μg per mouse
  weight change of mice (average (%) ± standard deviation): 104.3 ± 1.2%
[2]; 4 days after administration, TEW-7197 25 mg/kg oral, antibody about 100 μg per mouse
  weight change of mice (average (%) ± standard deviation): 106.7 ± 3.5%
[2]; 6 days after administration, TEW-7197 25 mg/kg oral, antibody about 100 μg per mouse
  weight change of mice (average (%) ± standard deviation): 108.7 ± 4.5%
[2]; 8 days after administration, TEW-7197 25 mg/kg oral, antibody about 100 μg per mouse
  weight change of mice (average (%) ± standard deviation): 115.8 ± 6.4%
[2]; 11 days after administration, TEW-7197 25 mg/kg oral, antibody about 100 μg per mouse
  weight change of mice (average (%) ± standard deviation): 125.0 ± 6.5%
[2]; Start date, TEW-7197 25 mg/kg oral once a day 5 days a week, antibody about 100 μg per mouse every 2 days abdominal injection
  weight change of mice (average (%) ± standard deviation): 100.0 ± 0.0%
[2]; up to 11th day, Table 2
  weight change caused by drug (in words): barely had significant weight change
[3]; 2 days after administration
  tumor inhibition rate (vs. vehicle, human IgG or hamster IgG administered group): 21.3%
  Tumor volume change (Δt = Vt − V0): 30.4 ± 6.6 mm^3
[3]; 4 days after administration
  tumor inhibition rate (vs. vehicle, human IgG or hamster IgG administered group): 21.7%
  Tumor volume change (Δt = Vt − V0): 100.4 ± 11.4* mm^3
[3]; 6 days after administration
  tumor inhibition rate (vs. vehicle, human IgG or hamster IgG administered group): 23.0%
  Tumor volume change (Δt = Vt − V0): 174.5 ± 29.6** mm^3
[3]; 8 days after administration
  tumor inhibition rate (vs. vehicle, human IgG or hamster IgG administered group): 22.9%
  Tumor volume change (Δt = Vt − V0): 455.3 ± 67.1* mm^3
[3]; 11 days after administration
  tumor inhibition rate (vs. vehicle, human IgG or hamster IgG administered group): 20.9%
  Tumor volume change (Δt = Vt − V0): 1084.0 ± 179.5* mm^3
[3]; Start date
  Tumor volume change (Δt = Vt − V0): 0.0 ± 0.0 mm^3
